Consider 29 compounds from US20260028365A1 (BIOGEN MA INC., priority 2022, published 2026).

One assay concerns the target Tyk2 (Homo sapiens (Human), UniProt P29597). Briefly: pSTAT4 Cell Assay (MSD, NK92 cells). Format: cell-based. The following applies: MSD.
The target in a further assay is JH2 domain of human Tyk2 (Homo sapiens (Human), UniProt P29597). In words: JH2 Biochemical Assay (TR-FRET probe displacement). Format: binding. Conditions: JH2 domain of human Tyk2, TR-FRET probe displacement. (Time-resolved FRET reads energy transfer from a long-lived donor to a nearby acceptor.)
Sequence of JH2 domain of human Tyk2 (P29597 575-876): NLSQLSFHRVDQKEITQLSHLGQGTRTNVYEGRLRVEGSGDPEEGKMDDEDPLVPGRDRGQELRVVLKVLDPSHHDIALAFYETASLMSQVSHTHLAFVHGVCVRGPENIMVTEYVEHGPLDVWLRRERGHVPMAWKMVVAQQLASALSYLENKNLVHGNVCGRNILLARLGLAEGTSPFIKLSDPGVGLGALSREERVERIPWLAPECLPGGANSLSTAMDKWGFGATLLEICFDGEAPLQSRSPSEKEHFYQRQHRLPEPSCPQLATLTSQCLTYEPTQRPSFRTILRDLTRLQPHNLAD

Sequence of Tyk2 (P29597 whole entry, the tested form may be a part): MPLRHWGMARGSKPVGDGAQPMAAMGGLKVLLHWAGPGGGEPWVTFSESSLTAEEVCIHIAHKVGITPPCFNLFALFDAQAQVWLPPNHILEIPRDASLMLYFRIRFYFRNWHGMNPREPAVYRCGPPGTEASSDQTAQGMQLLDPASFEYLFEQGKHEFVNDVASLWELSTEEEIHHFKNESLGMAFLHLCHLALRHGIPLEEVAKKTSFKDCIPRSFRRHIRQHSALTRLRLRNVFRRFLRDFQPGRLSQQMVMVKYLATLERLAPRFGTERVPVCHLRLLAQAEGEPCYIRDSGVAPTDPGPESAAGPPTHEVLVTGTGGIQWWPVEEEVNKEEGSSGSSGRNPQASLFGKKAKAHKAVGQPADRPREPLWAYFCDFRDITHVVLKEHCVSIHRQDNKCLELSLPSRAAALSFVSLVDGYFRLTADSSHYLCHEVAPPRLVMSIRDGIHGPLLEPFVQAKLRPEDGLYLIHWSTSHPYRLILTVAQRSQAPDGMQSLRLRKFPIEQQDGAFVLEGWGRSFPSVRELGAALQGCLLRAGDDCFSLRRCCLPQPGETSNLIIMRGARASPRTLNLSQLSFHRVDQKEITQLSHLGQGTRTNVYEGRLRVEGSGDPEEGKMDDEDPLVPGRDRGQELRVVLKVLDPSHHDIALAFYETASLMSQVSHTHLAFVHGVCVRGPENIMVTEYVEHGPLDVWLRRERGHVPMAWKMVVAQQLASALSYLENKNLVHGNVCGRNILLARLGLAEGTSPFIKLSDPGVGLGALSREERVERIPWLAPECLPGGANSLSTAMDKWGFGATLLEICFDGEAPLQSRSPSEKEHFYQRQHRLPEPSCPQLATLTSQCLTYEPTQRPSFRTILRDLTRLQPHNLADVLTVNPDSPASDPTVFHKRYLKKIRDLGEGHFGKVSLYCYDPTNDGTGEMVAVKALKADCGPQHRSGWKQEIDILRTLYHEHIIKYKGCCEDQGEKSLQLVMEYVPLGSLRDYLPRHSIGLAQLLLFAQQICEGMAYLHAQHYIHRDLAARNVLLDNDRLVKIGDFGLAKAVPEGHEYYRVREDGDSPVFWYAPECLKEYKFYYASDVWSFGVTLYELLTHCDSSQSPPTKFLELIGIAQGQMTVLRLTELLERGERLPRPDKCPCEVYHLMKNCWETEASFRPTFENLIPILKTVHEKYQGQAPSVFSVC

With `COCCOc1cncc(-c2cnc(NC(C)=O)cc2Nc2ccnc(C(C)(F)F)n2)n1` [Example 691, N-(4-((2-(1,1-difluoroethyl)pyrimidin-4-yl)amino)-5-(6-(2-methoxyethoxy)pyrazin-2-yl)pyridin-2-yl)acetamide], the IC50 (in general, the concentration that gives 50% inhibition) lay within 100 to 1000 nM at Tyk2 and 10 to 100 nM on JH2 domain of human Tyk2.
The corresponding values for `CC(=O)Nc1cc(Nc2ccnc(C(C)(F)F)n2)c(-c2cnc(COC(F)F)cn2)cn1` [Example 692, N-(4-((2-(1,1-difluoroethyl)pyrimidin-4-yl)amino)-5-(5-((difluoromethoxy)methyl)pyrazin-2-yl)pyridin-2-yl)acetamide] are 100 to 1000 nM and at most 10 nM.
On to `CC(=O)Nc1cc(Nc2ccnc(C(C)(F)F)n2)c(-c2cnc(C3CC3)cn2)cn1` [Example 694, N-(5-(5-cyclopropylpyrazin-2-yl)-4-((2-(1,1-difluoroethyl)pyrimidin-4-yl)amino)pyridin-2-yl)acetamide], for which the half-inhibitory concentration (IC50) at Tyk2 is 10 to 100 nM; on JH2 domain of human Tyk2, at most 10 nM.
For `CC(=O)Nc1cc(Nc2ccnc(C(C)(F)F)n2)c(-c2cnc(C(C)(F)F)cn2)cn1` [Example 695, N-(5-(5-(1,1-difluoroethyl)pyrazin-2-yl)-4-((2-(1,1-difluoroethyl)pyrimidin-4-yl)amino)pyridin-2-yl)acetamide], the 50% inhibitory concentration (IC50) at Tyk2 is 100 to 1000 nM; at JH2 domain of human Tyk2 it was at most 10 nM.
`COCc1nccc(-c2cnc(NC(C)=O)cc2Nc2ccnc(C(C)(F)F)n2)n1` [Example 696, N-(4-((2-(1,1-difluoroethyl)pyrimidin-4-yl)amino)-5-(2-(methoxymethyl)pyrimidin-4-yl)pyridin-2-yl)acetamide]: the IC50 against Tyk2 and on JH2 domain of human Tyk2 was at most 10 nM throughout.
For the compound `CC(=O)Nc1cc(Nc2ccnc(C(C)(F)F)n2)c(-c2ncc(Cl)cn2)cn1` [Example 697, N-(5-(5-chloropyrimidin-2-yl)-4-((2-(1,1-difluoroethyl)pyrimidin-4-yl)amino)pyridin-2-yl)acetamide], the values for the IC50 at Tyk2 and on JH2 domain of human Tyk2 were 10 to 100 nM and at most 10 nM, respectively.
In the case of `CC(=O)Nc1cc(Nc2ccnc(C(C)(F)F)n2)c(-c2ncccc2F)cn1` [Example 698, N-(4′-((2-(1,1-difluoroethyl)pyrimidin-4-yl)amino)-3-fluorO[2,3′-bipyridin]-6′-yl)acetamide], the concentration for half-maximal inhibition (IC50) was 100 to 1000 nM against Tyk2 and 10 to 100 nM on JH2 domain of human Tyk2.
On to `COc1cc(-c2cnc(NC(C)=O)cc2Nc2ccnc(C(C)(F)F)n2)ncc1F` [Example 699, N-(4′-((2-(1,1-difluoroethyl)pyrimidin-4-yl)amino)-5-fluorO4-methoxy-[2,3′-bipyridin]-6′-yl)acetamide], for which the IC50 against Tyk2 is at least 1000 nM; at JH2 domain of human Tyk2, 10 to 100 nM.
In the case of `CC(=O)Nc1cc(Nc2ccnc(C(C)(F)F)n2)c(-c2cc(C)ccn2)cn1` [Example 700, N-(4′-((2-(1,1-difluoroethyl)pyrimidin-4-yl)amino)-4-methyl-[2,3′-bipyridin]-6′-yl)acetamide], the results for the half-maximal inhibitory concentration (IC50) on Tyk2 and on JH2 domain of human Tyk2 were 10 to 100 nM and at most 10 nM, respectively.
With `CC(=O)Nc1cc(Nc2ccnc(C(C)(F)F)n2)c(-c2cc(C)c(C#N)cn2)cn1` [Example 701, N-(5-cyanO4′-((2-(1,1-difluoroethyl)pyrimidin-4-yl)amino)-4-methyl-[2,3′-bipyridin]-6′-yl)acetamide], the IC50 against Tyk2 and on JH2 domain of human Tyk2 was at most 10 nM each time.
Regarding `CC(=O)Nc1cc(Nc2ccnc(C(C)(F)F)n2)c(-c2ccc(CN3C[C@H]4C[C@@H](C3)O4)cn2)cn1` [Example 702, N-(5-(((1R,5S)-6-oxa-3-azabicyclo[3.1.1]heptan-3-yl)methyl)-4′-((2-(1,1-difluoroethyl)pyrimidin-4-yl)amino)-[2,3′-bipyridin]-6′-yl)acetamide], the half-inhibitory concentration (IC50) against Tyk2 and on JH2 domain of human Tyk2 was at most 10 nM each time.
In the case of `CC(=O)Nc1cc(Nc2ccnc(C(C)(F)F)n2)c(-c2ccc(CN3CCC4(COC4)C3)cn2)cn1` [Example 703, N-(5-((2-oxa-6-azaspiro[3.4]octan-6-yl)methyl)-4′-((2-(1,1-difluoroethyl)pyrimidin-4-yl)amino)-[2,3′-bipyridin]-6′-yl)acetamide], the concentration for half-maximal inhibition (IC50) on Tyk2 and at JH2 domain of human Tyk2 was at most 10 nM throughout.
As for `CC(=O)Nc1cc(Nc2ccnc(C(C)(F)F)n2)c(-c2ccn(CC3CC3)n2)cn1` [Example 704, N-(5-(1-(cyclopropylmethyl)-1H-pyrazol-3-yl)-4-((2-(1,1-difluoroethyl)pyrimidin-4-yl)amino)pyridin-2-yl)acetamide], the IC50 against Tyk2 and on JH2 domain of human Tyk2 was at most 10 nM in each case.
As for `CCCn1ccc(-c2cnc(NC(C)=O)cc2Nc2ccnc(C(C)(F)F)n2)n1` [Example 705, N-(4-((2-(1,1-difluoroethyl)pyrimidin-4-yl)amino)-5-(1-propyl-1H-pyrazol-3-yl)pyridin-2-yl)acetamide], the IC50 against Tyk2 and at JH2 domain of human Tyk2 was at most 10 nM throughout.
With `CCn1ccc(-c2cnc(NC(C)=O)cc2Nc2ccnc(C(C)(F)F)n2)n1` [Example 706, N-(4-((2-(1,1-difluoroethyl)pyrimidin-4-yl)amino)-5-(1-ethyl-1H-pyrazol-3-yl)pyridin-2-yl)acetamide], the IC50 against Tyk2 and on JH2 domain of human Tyk2 was at most 10 nM throughout.
`CCn1ncc(-c2cnc(NC(C)=O)cc2Nc2ccnc(C(C)(F)F)n2)n1` [Example 709, N-(4-((2-(1,1-difluoroethyl)pyrimidin-4-yl)amino)-5-(2-ethyl-2H-1,2,3-triazol-4-yl)pyridin-2-yl)acetamide]: the results for the half-inhibitory concentration (IC50) against Tyk2 and at JH2 domain of human Tyk2 were 10 to 100 nM and at most 10 nM, respectively.
In the case of `COCn1ncc(-c2cnc(NC(C)=O)cc2Nc2ccnc(C(C)(F)F)n2)n1` [Example 711, N-(4-((2-(1,1-difluoroethyl)pyrimidin-4-yl)amino)-5-(2-(methoxymethyl)-2H-1,2,3-triazol-4-yl)pyridin-2-yl)acetamide], the half-inhibitory concentration (IC50) is 10 to 100 nM against Tyk2 and at most 10 nM at JH2 domain of human Tyk2.
`COc1nc(-c2cnc(NC(C)=O)cc2Nc2ccnc(C(C)(F)F)n2)cs1` [Example 712, N-(4-((2-(1,1-difluoroethyl)pyrimidin-4-yl)amino)-5-(2-methoxythiazol-4-yl)pyridin-2-yl)acetamide]: the half-inhibitory concentration (IC50) against Tyk2 and at JH2 domain of human Tyk2 was at most 10 nM in each case.
As for `CCc1nnc(-c2cnc(NC(C)=O)cc2Nc2ccnc(C(C)(F)F)n2)s1` [Example 714, N-(4-((2-(1,1-difluoroethyl)pyrimidin-4-yl)amino)-5-(5-ethyl-1,3,4-thiadiazol-2-yl)pyridin-2-yl)acetamide], the 50% inhibitory concentration (IC50) on Tyk2 and on JH2 domain of human Tyk2 was at most 10 nM throughout.
Regarding `CC(=O)Nc1cc(Nc2ccnc(C(C)(F)F)n2)c(-c2nc(C)ns2)cn1` [Example 716, N-(4-((2-(1,1-difluoroethyl)pyrimidin-4-yl)amino)-5-(3-methyl-1,2,4-thiadiazol-5-yl)pyridin-2-yl)acetamide], the figures for the half-maximal inhibitory concentration (IC50) on Tyk2 and on JH2 domain of human Tyk2 were 10 to 100 nM and at most 10 nM, respectively.
In the same order, the values of `CC(=O)Nc1cc(Nc2ccnc(C(C)(F)F)n2)c(-c2ccc3c(n2)CCC3=O)cn1` [Example 718, N-(4-((2-(1,1-difluoroethyl)pyrimidin-4-yl)amino)-5-(5-oxO6,7-dihydrO5H-cyclopenta[b]pyridin-2-yl)pyridin-2-yl)acetamide] are 10 to 100 nM and at most 10 nM.
`CCc1cc(Nc2cc(NC(C)=O)ncc2-c2ccnc(COC)n2)nc(C(C)(F)F)n1` [Example 720, N-(4-((2-(1,1-difluoroethyl)-6-ethylpyrimidin-4-yl)amino)-5-(2-(methoxymethyl)pyrimidin-4-yl)pyridin-2-yl)acetamide]: the 50% inhibitory concentration (IC50) on Tyk2 and at JH2 domain of human Tyk2 was at most 10 nM each time.
Consider `CC(=O)Nc1cc(Nc2cncc(C(C)(C)F)c2)c(-c2ccc(C(C)(C)O)cn2)cn1` [Example 722, N-(4′-((5-(2-fluoropropan-2-yl)pyridin-3-yl)amino)-5-(2-hydroxypropan-2-yl)-[2,3′-bipyridin]-6′-yl)acetamide], for which the IC50 against Tyk2 and at JH2 domain of human Tyk2 was at most 10 nM in each case.
For the compound `CC(=O)Nc1cc(Nc2cc(C)nc(C(C)(C)F)n2)c(-c2ncc(F)cn2)cn1` [Example 723, N-(4-((2-(2-fluoropropan-2-yl)-6-methylpyrimidin-4-yl)amino)-5-(5-fluoropyrimidin-2-yl)pyridin-2-yl)acetamide], the IC50 at Tyk2 was 10 to 100 nM; at JH2 domain of human Tyk2, at most 10 nM.
The corresponding values for `CC(=O)Nc1cc(Nc2ccnc(C(C)(F)F)n2)c(-n2cc(C)cn2)cn1` [Example 728, N-(4-((2-(1,1-difluoroethyl)pyrimidin-4-yl)amino)-5-(4-methyl-1H-pyrazol-1-yl)pyridin-2-yl)acetamide] are 10 to 100 nM and at most 10 nM.
The corresponding values for `CC(=O)Nc1cc(Nc2cc(C)nc(C(C)(F)F)n2)c(-n2cc(C)cn2)cn1` [Example 729, N-(4-((2-(1,1-difluoroethyl)-6-methylpyrimidin-4-yl)amino)-5-(4-methyl-1H-pyrazol-1-yl)pyridin-2-yl)acetamide] are at most 10 nM and at most 10 nM.
For the compound `COc1cnn(-c2cnc(NC(C)=O)cc2Nc2ccnc(C(C)(F)F)n2)c1` [Example 730, N-(4-((2-(1,1-difluoroethyl)pyrimidin-4-yl)amino)-5-(4-methoxy-1H-pyrazol-1-yl)pyridin-2-yl)acetamide], the IC50 on Tyk2 is 100 to 1000 nM; at JH2 domain of human Tyk2, 10 to 100 nM.
On to `COc1cnn(-c2cnc(NC(C)=O)cc2Nc2cc(C)nc(C(C)(F)F)n2)c1` [Example 731, N-(4-((2-(1,1-difluoroethyl)-6-methylpyrimidin-4-yl)amino)-5-(4-methoxy-1H-pyrazol-1-yl)pyridin-2-yl)acetamide], for which the results for the IC50 against Tyk2 and at JH2 domain of human Tyk2 were 10 to 100 nM and at most 10 nM, respectively.
As to `CC(=O)Nc1cc(Nc2cc(C)nc(C(C)(F)F)n2)c(-n2cc(C#N)cn2)cn1` [Example 733, N-(5-(4-cyanO1H-pyrazol-1-yl)-4-((2-(1,1-difluoroethyl)-6-methylpyrimidin-4-yl)amino)pyridin-2-yl)acetamide], the IC50 was 100 to 1000 nM against Tyk2 and at most 10 nM on JH2 domain of human Tyk2.
